Measurements: ChEMBL document CHEMBL1145484, “Evaluation of the metS and murB loci for antibiotic discovery using targeted antisense RNA expression analysis in Bacillus anthracis” (2007)
Converted amounts (≈) assume the structure as drawn.

Tested on: Bacillus anthracis
Assay: Antibacterial activity against Bacillus anthracis UM23C1-1
Type: functional

O=C(O)c1ccc(OCc2nc3ccccc3[nH]2)c(OCc2ccc(Cl)cc2Cl)c1
MIC: 2 µg/mL (≈ 4.51 µM)
